Experiment [1] deals with recombinant human GSK-3β (Homo sapiens, UniProt P49841). In words: Kinase Inhibition Assay (GSK-3β, 33P phosphoCREB peptide filter assay). The format is biochemical. From the text: An important in vitro test is the ability of the compound to inhibit the activity of the GSK-3β enzyme. This test is done according to a standard protocol. (See Fiol, et al, A Secondary Phosphorylation of CREB^341 at Ser^129 Is Required for the cAMP-Mediated Control of Gene Expression: A Role for Glycogen Synthase Kinase-3 in the Control of Gene Expression, J. Biol. Chem., 269, 32187-32193 (1994)).
The catalysis of the reaction:
(pS)YR+AT^33P→KRREIL(^33pS)RRP(pS)YR [measured]+ADP by GSK-3β is measured in a reaction mixture comprised of the following: 50 mM MOPS (4-morpholinepropanesulfonic acid) pH 7.0; 50 μM phosphoCREB peptide; 50 μM ATP; 0.5 μCi ATP[γ-^33P]; 12.5 mM MgCl2; 0.03% Triton-X; 4% DMSO; and 1 nM recombinant human GSK-3β. The reaction is initiated by the addition of enzyme. The final reaction volume is 100 μL. The reaction is allowed to proceed for 60 minutes at room temperature and is stopped by the addition of 75 μL of 10% phosphoric acid. To capture KRREIL(^33pS)RRP(pS)YR formed in the reaction and to remove unreacted AT^33P, 160 μL of the stopped reaction mixture is transferred to a pre-wetted (0.75% phosphoric acid) phosphocellulose microfiltration plate [Millipore Cat.# MAPH NOB 50] and after 90 minutes incubation on the plate, the stopped reaction mixture is passed through the filter using a Titertek Map Extractor. The filter containing the trapped KRREIL(^33pS)RRP(pS)YR is washed with 220 μL of 0.75% phosphoric acid. Filter plates are blotted to remove droplets from the underdrain. The underdrain is removed from the filter and the filter is placed into a clear plate liner (Wallac, Inc.). Added to each well is 100 μL of Microscint 20 (Packard).
After standing at least six hours (preferably overnight), the plates are counted in a Trilux scintillation counter (Wallac, Inc.). The ability of a compound to inhibit GSK-3β is determined by including various concentrations of the compound in the reaction mixture and comparing the signal produced to the signal produced in a reaction mixture without the compound.
The test yields the molar concentration of the test compound that produces a 50% inhibition of the GSK-3β enzyme activity.

The test system of experiment [2] is 3T3-L1 adipocytes. Kind of experiment: Glycogen Synthesis Assay (14C-glucose incorporation into glycogen). To be noted: 1 μM compound. In kind it is cell-based. The protocol:
This test measures the increase in the production of glycogen both in the absence and in the presence of insulin in the cells. This test is done according to standard protocols. (See Berger and Hayes, A High-Capacity assay for Activators of Glucose Incorporation into Glycogen in L6 Muscle Cells, Analytical Biochemistry, 261, 159-163 (1998).)
Briefly, 3T3-L1 adipocytes are plated and differentiated in a 96-well plate at 25,000 cells/well. The plate is serum-starved overnight. The serum-starvation media is removed just prior to assay, and the plate is washed with 100 μl/well Krebs-Ringer-Hepes buffer (KRBH). The KRBH is removed and 50 μl of compound (twice the amount of the final concentration) is added to the assay plate. Next, 50 μl of ^14C-labeled glucose is added to the assay plate at 0.1 μCi/well. The plate is then incubated at 37° C. for 2 hours.
The plate is washed with 100 μL/well of PBS, and the cells are lysed with 75 μl/well of 1N NaOH. The plate is heated at 70° C. for 20 minutes. An aliquot (50 μl) of the supernatant is transferred from the assay plate to a Millipore FC filter plate containing 120 μl/well of ice-cold ethanol. The plate is allowed to stand for 2 hours at 4° C. to facilitate precipitation. The ethanol is removed from the filter plate via a vacuum manifold, and the plate is washed with 100 μL/well of ice-cold 70% ethanol. The plate was allowed to dry overnight, and 75 μl/well of Microscint-20 was added to the filter plate. The plate was then counted on a Packard Topcount.

For experiment [3], the system named is ZDF rats. Kind of experiment: Glucose Lowering Assay. In kind it is in vivo, rat. To be noted: oral gavage once daily, relative to insulin. The protocol:
This test measures the effect of the test compound on blood glucose and triglycerides relative to insulin. (See Eldar-Finkleman, et al, Expression and Characterization of Glycogen Synthase Kinase-3 Mutants and Their Effect on Glycogen Synthase Activity in Intact Cells, Proc. Nat. Acad. Sci., 93, 10228-10233 (1996).)
ZDF rats (Charles River, Inc.) at six weeks of age are housed individually with free access to food and water. Rats are dosed with drug once daily by oral gavage, with the compound prepared as a suspension in 1% caboxymethylcellusolve/0.25% Tween 80 (CMC-Tween). Vehicle controls are dosed with CMC-Tween only. The duration of study varied according to the protocol used, with acute dosing studies lasting one day and dose escalation studies lasting seven days. Body weights and food consumption measurements are also performed once a week for seven-day studies. For measurement of blood glucose and triglycerides, blood samples of 600 μl are collected by the tail snip method. (The tail snip for blood sampling is as follows: 1-2 mm of the tail is snipped with a sharp blade. After collection of blood, a scab forms at the site of wound. This scab is removed and the tail is gently massaged for other subsequent bleedings.) Glucose and triglyceride determinations are performed on a Hitachi 912 metabolic analyzer, with a kit utilizing the Trinder method. […]

Experiment [4] has as its system β-catenin in AG04160C FAD lymphoblast cells. Kind of experiment: β-Catenin Protection Assay. To be noted: fold induction over basal β-catenin, 24 hours, concentration not given. The format is cell-based, human. As to the method: This test measures the fold induction over basal β-catenin and is performed according to standard protocols (Hedgepeth, C. M., Dev. Biol. 185, 82-91 (1997); Chen, G., et al., J. Neurochem., 72, 1327-1330 (1999); Hong, M., et al., J. Biol. Chem., 272, 25326-25332 (1997)).
The human familial Alzheimer's disease (FAD) presenilin-1 AG04160C lymphoblast cell line (Coriell Cell Repository, Camden, N.J.) is maintained as a suspension culture in RPMI 1640 (with L-Glutamine) supplemented with 10% fetal bovine serum and 1% penicillin-streptomycin in an atmosphere of 37° C. and 5% CO2. The AG04160C FAD lymphoblast cells are seeded in T-25 cm^2 flasks at 2.5 to 5.0×10^5 cells/ml in a total volume of 10 ml. Following 16-18 hours of growth, cells are treated with compound at concentrations of 0.1 μM, 1.0 μM, and 10 μM, and are incubated for an additional 24 hours. […] The total protein concentration in whole cell lysate samples is determined using the BCA method (Pierce). […] The β-catenin accumulation/stability is then quantified following densitometry analysis of protein bands. […]

[5] abbreviates: Table II, 1 nM recombinant human GSK-3β, 50 μM ATP, 60 minutes at room temperature, read-out: GSK-3β IC50.

Structures can show the parent of a compound that is named as a salt. Where two headings read alike, the source gives them in different places.

Chain of recombinant human GSK-3β (P49841 whole entry): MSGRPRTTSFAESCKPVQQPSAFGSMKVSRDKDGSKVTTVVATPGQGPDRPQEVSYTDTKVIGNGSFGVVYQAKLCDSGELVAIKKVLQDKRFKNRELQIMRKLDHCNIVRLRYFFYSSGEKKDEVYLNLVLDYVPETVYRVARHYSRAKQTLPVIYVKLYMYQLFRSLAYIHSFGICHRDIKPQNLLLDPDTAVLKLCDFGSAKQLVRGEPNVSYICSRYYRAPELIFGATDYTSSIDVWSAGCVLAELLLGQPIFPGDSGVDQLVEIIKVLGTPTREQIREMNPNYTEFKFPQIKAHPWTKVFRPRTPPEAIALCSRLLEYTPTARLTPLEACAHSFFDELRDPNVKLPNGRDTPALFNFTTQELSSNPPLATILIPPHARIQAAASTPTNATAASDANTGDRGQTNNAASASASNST

Turning to `CC(C)CN[C@H]1CC[C@H](n2cc(C3=C(c4cccc5ccoc45)C(=O)NC3=O)c3c(F)cccc32)CC1` [Example 150, 3-(Benzofur-7-yl)-4-[4-fluoro-1-(4-trans-isobutylaminocyclohexyl)-1H-indol-3-yl]pyrrole-2,5-dione hydrochloride], the concentration for half-maximal inhibition (IC50) (usually the concentration that gives 50% inhibition) in experiment [1] (setting [5]) came out at 10.6 nM. Besides, in experiment [2], the “Glycogen Synthesis (fold increase at 1 μM) in absence of insulin” value is 2.97× in absence of fold and the “Glycogen Synthesis (fold increase at 1 μM) in presence of insulin” value is reported as 3.92× in presence of fold. Also, in experiment [3], the “Glucose Lowering (percent increase vs. effect of insulin)” value is 58%.

Take `CCN(CC)CCCOc1ccc2c(c1)c(C1=C(c3cc(F)cc4ccoc34)C(=O)NC1=O)cn2C(C)C` [Example 114, 3-(5-Fluorobenzofur-7-yl)-4-[5-(3-diethylaminopropoxy)-1-isopropyl-1H-indol-3-yl]pyrrole-2,5-dione hydrochloride]: the IC50 in experiment [1] (setting [5]) is 133 nM.

As to `Cl.Cn1cc(C2=C(c3cccc4ccoc34)C(=O)NC2=O)c2cc(OCCNCC3CC3)ccc21` [Example 119, 3-(Benzofur-7-yl)-4-{5-[2-(cyclopropylmethylamino)ethoxy]-1-methyl-1H-indol-3-yl}pyrrole-2,5-dione hydrochloride], the IC50 in experiment [1] (setting [5]) stood at 9.5 nM. For the same compound, in experiment [2], the “Glycogen Synthesis (fold increase at 1 μM) in absence of insulin” value was 2.82× in absence of fold and the “Glycogen Synthesis (fold increase at 1 μM) in presence of insulin” value is listed as 2.13× in presence of fold. Also, the “β-Catenin (fold increase)” value in experiment [4] is reported as 4.9× fold.

Turning to `Cn1cc(C2=C(c3ccc(O)c4ccoc34)C(=O)NC2=O)c2ccccc21` [Example 135, 3-(4-Hydroxybenzofur-7-yl)-4-(1-methyl-1H-indol-3-yl)pyrrole-2,5-dione], the concentration for half-maximal inhibition (IC50) in experiment [1] (setting [5]) was found to be 55.2 nM.

Consider `COc1cc(C2=C(c3cn(CCN4CCN(C)CC4)c4ccccc34)C(=O)NC2=O)c2occc2c1` [Example 100, 3-(5-Methoxybenzofur-7-yl)-4-{1-[2-(4-methylpiperazin-1-yl)ethyl]-1H-indol-3-yl}pyrrole-2,5-dione], for which the IC50 in experiment [1] amounted to 143 nM.

On to `Cn1ccc2c(C3=C(c4cn(CCCO)c5ccccc45)C(=O)NC3=O)cccc21` [Example 1, 3-(1-Methyl-1H-indol-4-yl)-4-[1-(3-hydroxypropyl)-1H-indol-3-yl]pyrrole-2,5-dione], for which the IC50 in experiment [1] (setting [5]) stood at 176 nM.

Consider `CCN(CC)CCCc1cccc2c(C3=C(c4cccc5ccoc45)C(=O)NC3=O)cn(C)c12` [Example 102, 3-(Benzofur-7-yl)-4-[7-(3-diethylaminopropyl)-1-methyl-1H-indol-3-yl]pyrrole-2,5-dione], for which the 50% inhibitory concentration (IC50) in experiment [1] (setting [5]) was found to be 125 nM.

As for `O=C1NC(=O)C(c2cccc3ccoc23)=C1c1cn(C2CCNCC2)c2ccccc12` [Example 139, 3-(Benzofur-7-yl)-4-[1-(piperidin-4-yl)-1H-indol-3-yl]pyrrole-2,5-dione], the IC50 in experiment [1] (setting [5]) was found to be 5.74 nM.

For `COc1ccc(C2=C(c3cn(CCCCN(C)C)c4ccccc34)C(=O)NC2=O)c2occc12` [Example 118], the half-inhibitory concentration (IC50) in experiment [1] (setting [5]) came out at 70.2 nM.

These data come from patent US7405305B2 (Eli Lilly and Company, priority 2002, dated 2008).
